From PMC5535840 (International Journal of Molecular Sciences, 2017)
Like-named read-outs stand apart in the source and are kept apart here.

What was measured:
[1] = target: T1, hMT2; MT2 melatonin receptor (Homo sapiens, UniProt P49286); test: […]-[…]-iodomelatonin displacement, CHO-K1 membranes; format: binding
T1 construct: gene MTNR1B
T1 sequence (P49286 1-362): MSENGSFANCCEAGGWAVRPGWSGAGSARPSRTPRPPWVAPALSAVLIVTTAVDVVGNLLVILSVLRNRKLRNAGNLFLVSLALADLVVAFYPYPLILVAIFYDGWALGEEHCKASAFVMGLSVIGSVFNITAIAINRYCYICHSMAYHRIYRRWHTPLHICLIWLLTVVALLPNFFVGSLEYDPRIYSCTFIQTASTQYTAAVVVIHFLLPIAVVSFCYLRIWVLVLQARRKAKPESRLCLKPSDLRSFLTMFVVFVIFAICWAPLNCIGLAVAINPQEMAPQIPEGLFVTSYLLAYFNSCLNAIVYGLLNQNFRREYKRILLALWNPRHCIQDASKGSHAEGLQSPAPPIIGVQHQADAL

[2] = target: T1, hMT2; MT2 melatonin receptor; test: […]-GTPγS binding, CHO-K1 membranes; format: biochemical
[3] = target: T2, hMT1; MT1 melatonin receptor (Homo sapiens, UniProt P48039); test: […]-[…]-iodomelatonin displacement, CHO-K1 membranes; format: binding
T2 construct: gene MTNR1A
T2 sequence (P48039 whole entry): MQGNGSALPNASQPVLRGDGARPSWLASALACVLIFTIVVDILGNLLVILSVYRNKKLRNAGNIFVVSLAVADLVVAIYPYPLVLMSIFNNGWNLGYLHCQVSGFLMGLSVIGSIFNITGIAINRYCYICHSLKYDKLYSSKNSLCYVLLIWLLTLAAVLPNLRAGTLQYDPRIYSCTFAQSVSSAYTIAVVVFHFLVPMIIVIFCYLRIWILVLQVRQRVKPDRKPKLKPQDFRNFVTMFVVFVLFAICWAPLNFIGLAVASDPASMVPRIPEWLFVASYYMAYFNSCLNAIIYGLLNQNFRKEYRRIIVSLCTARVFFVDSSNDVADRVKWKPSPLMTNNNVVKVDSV

[4] = target: T2, hMT1; MT1 melatonin receptor; test: […]-GTPγS binding, CHO-K1 membranes; format: biochemical; details: read-out: MT1 / pEC50 (converted)
[5] = radioligand […]-[…]-iodomelatonin
[6] = read-out: MT2 / pEC50 (converted)

## COc1cc(Br)c(Cc2cc(OC)c(OC)cc2CC(=O)OC(C)(C)C)cc1OC [DIV0879]
[1]; [5]
  Ki: 1.4 ± 0.1 nM
[2]; [6]
  EC50: 1.38 nM
[3]
  Ki: 1780 ± 118 nM
[4]
  EC50: > 10000 nM

## COc1cc(I)c(Cc2cc(OC)c(OC)cc2CC(=O)OC(C)(C)C)cc1OC [DIV0880]
[1]
  Ki: 1 ± 0.1 nM
[2]; [6]
  EC50: 0.331 nM
[3]
  Ki: 1200 ± 143 nM
[4]
  EC50: > 10000 nM

## COc1ccc(Cc2cc(OC)c(OC)cc2CC(=O)OC(C)(C)C)cc1OC [DIV4288]
[1]; [5]
  Ki: 1.4 ± 0.1 nM
[2]; [6]
  EC50: 2.04 nM
[3]; [5]
  Ki: 1300 ± 97 nM
[4]
  EC50: > 10000 nM

## COc1cc(F)c(Cc2cc(OC)c(OC)cc2CC(=O)OC(C)(C)C)cc1OC [DIV6518]
[1]; [5]
  Ki: 1.4 ± 0.3 nM
[2]; [6]
  EC50: 1.17 nM
[3]; [5]
  Ki: 630 ± 55 nM
[4]
  EC50: > 10000 nM

## COc1cc(CC(=O)OC(C)(C)C)c(Cc2cc(OC)c(OC)cc2-c2ccccc2)cc1OC [DIV6519]
[1]; [5]
  Ki: 0.49 ± 0.01 nM
[2]; read-out: MT1 / pEC50 (converted)
  EC50: > 10000 nM
[3]; [5]
  Ki: 44 ± 7 nM
[4]
  EC50: > 10000 nM
